Test results taken from paper PMC5970127, “In vivo evaluation of two tissue transglutaminase PET tracers in an orthotopic tumour xenograft model” (EJNMMI Research, 2018).
Several values for one entry are separate records, joined by “and”; a condition that tells them apart may be missing. Identical values can stand only once. Like-named read-outs stand apart in the source and are kept apart here.

What was measured:
TG2 [1] = biological target: TG2; parameters: method as in PMID 17149878; conditions: cited from earlier work
TG2 [2] = system: TG2; parameters: method as in PMID 24152195; conditions: cited from earlier work
[3] = Plasma metabolite analysis after i.v. administration in SCID mice; assay type: in vivo; conditions: mouse plasma
Procedure: Healthy female SCID mice (20–25 g, Harlan, Horst, The Netherlands) were injected in the tail vein with [^11C]1 or [^18F]2 (20 MBq) under isoflurane anaesthesia (2% in O2 at 1 L · min^−1). Mice were sacrificed at 15 and 45 min post injection (n = 3 for each time-point) by cervical dislocation. Blood (~ 0.5–1 mL) was withdrawn by heart puncture, collected in a heparin-coated tube and centrifuged at 5000 RPM to separate plasma from blood cells. Solid phase extraction (SPE) cartridges (tC18, Waters, Milford, MA, USA) were preconditioned by washing with methanol (MeOH, 6 mL) and H2O (two times 6 mL). Plasma (~ 0.2 mL) was mixed with 0.15 M HCl (0.2 mL) and loaded on the tC18 cartridge. The polar fraction was obtained by elution of the cartridge with H2O (3 mL), the non-polar fraction by subsequent elution with MeOH (1.5 mL) and H2O (0.5 mL). Both fractions were counted for radioactivity in a gamma counter. The percentage of intact tracer in the non-polar fraction was determined by online and offline HPLC analysis (Gemini C18 column (5 μm, 10 mm × 250 mm, Phenomenex, Torrance, CA, USA) with eluent MeCN (A) and 0.1% TFA acid in H2O (B) as eluent according to the following schemes; For [^11C]1: 0 min, 70% B at 0.25 mL · min^−1; 0.5 min, 70% B at 3.5 mL · min^−1; 9.0 min, 10% B at 3.5 mL · min^−1; 12.0 min, 10% B at 3.5 mL · min^−1; 12.5 min, 70% B at 3.5 mL · min^−1; 14.5 min, 70% B at 3.5 mL · min^−1 and 15 min, 70% B at 0.25 mL · min^−1 or for [^18F]2: 0 min, 80% B at 0.25 mL · min^−1; 0.5 min, 80% B at 3 mL · min^−1; 6.0 min, 30% B at 3 mL · min^−1; 12.0 min, 30% B at 3 mL · min^−1; 12.5 min, 80% B at 3.0 mL · min^−1; 14.5 min, 80% B at 3.0 mL · min^−1; 15.0 min, 80% B at 0.25 mL · min^−1 (Rt = 11.5 min). Offline HPLC analysis was performed when the online HPLC analysis yielded a low signal to noise ratio. For offline analysis, HPLC fractions (30 s per fraction) were collected and counted for radioactivity (WIZARD 2480 Compugamma, PerkinElmer, Waltham, MA, USA). The counting results were plotted to generate the corresponding HPLC chromatograms. Data were expressed as percentage of intact tracer, polar metabolites, and non-polar metabolites ± standard deviation.
To healthy SCID mice (n = 2) 10 MBq [^18F]2 diluted with 50 μg (2.5 mg · kg^−1) of unlabelled 2 was administered, corresponding to a molar activity of 0.14 GBq · μmol^−1. At 30 min post injection, animals were sacrificed under isoflurane anaesthesia (2% in O2 at 1 L · min^−1) by cervical dislocation. Blood (~ 1 mL) was collected by heart puncture. Blood plasma was separated using a SPE procedure as described in the “Metabolite analysis” section (vide supra). The non-polar fraction was analysed by HPLC and Liquid chromatography–tandem mass spectrometry (LC-MS/MS) in multiple reaction monitoring (MRM) mode. […]

MDA-MB-231 tumour = experiment: Dynamic PET imaging in orthotopic MDA-MB-231 tumour xenograft model; assay type: in vivo, SCID mice
Procedure: Severe combined immunodeficient (SCID) female mice (6–8 weeks, 20 to 25 g, Charles River, Wilmington, MA, USA) were housed in sterile cages under standard conditions (24 °C, 60% relative humidity, 12-h light/dark cycles) and provided with water and food ad libitum. MDA-MB-231 cells (1 × 10^6) were injected orthotopically in the fat pad of the second thoracic mammary glands (bilateral). Tumour dimensions were measured using a Vernier calliper, and tumour volume was calculated using the formula (x^2 y)/2 (x and y being the width and length, respectively) for an ellipsoid. At 8 weeks after MDA-MB-231 cell injection, tumours reached the target size of 200 mm^3. This study was performed according to national regulations and was approved by the Animal Experimentation Ethics Committee of the VU University Medical Center.
Dynamic PET imaging was performed using dedicated small animal NanoPET/CT and NanoPET/MR scanners (Mediso Ltd., Hungary, Budapest) with identical PET components. Mice (n = 4 per group) were anaesthetized with 4 and 2% isoflurane in 1 L · min^−1 oxygen for induction and maintenance, respectively. Mice were positioned on the scanner bed, and the respiratory rate was monitored for the duration of the scan, adjusting anaesthesia when required. A dynamic PET scan was acquired immediately after intravenous (i.v.) administration (tail vein) of 5 MBq [^11C]1 or [^18F]2. For blocking experiments, mice were injected subcutaneously with ERW1041E (50 mg · kg^−1) dissolved in 20% dimethylsulfoxide in 0.9% saline, 30 min prior to the tracer injection. An additional blocking experiment was performed by co-administration of compound 2 (50 μg, 75 nmol) and [^18F]2, which corresponded with a molar activity of 0.07 GBq · μmol^−1. PET scans were acquired in list mode and rebinned into the following frame sequence: 4 × 5, 4 × 10, 2 × 30, 3 × 60, 2 × 300, 1 × 600, 1 × 900 and 1 × 1200 s. In addition, a static [^18F]2-fluoro-2-deoxy-D-glucose ([^18F]FDG) scan was acquired for 30 min immediately after [^18F]FDG administration (10 MBq, tail vein). At least a 24-h time interval between [^18F]FDG scans and [^11C]1 or [^18F]2 scans was maintained. Reconstruction was performed with a fully 3-dimensional (3D) reconstruction algorithm using four iterations and six subsets, resulting in an isotropic 0.4-mm voxel dimension. Images were analysed using the freely available AMIDE-software version 1.0.4 (retrieved from https://sourceforge.net/projects/amide/files/amide/1.0.4). Regions of interest (ROIs) were drawn around the tumour tissue and leg muscle. Results are expressed as percentage injected dose per gram (%ID/g). Error bars indicate standard deviation. After PET scanning experiments, animals were sacrificed by cervical dislocation, tumours were isolated, and stored at − 80 °C until further use.

TG2 [4] = system: TG2; parameters: method as in PMID 27067043, PMID 27837727; conditions: TG2 inhibition; cited from earlier work
[5] = cited from earlier work; for Intact (%) / Non-polar (%) / Polar (%): rat plasma
activated FXIII = system: activated FXIII; parameters: method as in PMID 27067043, PMID 27837727; conditions: cited from earlier work
[6] = system: MDA-MB-231 tumour sections; parameters: method as in PMID 27067043, PMID 27837727; conditions: cited from earlier work
[7] = 15 min after i.v., % of total blood plasma activity ± SD
[8] = animals sacrificed at 60 min post injection (listed under 45 min)

Row | Intact (%) [3, 7] [%] | Intact (%) ([3]; 45 min after i.v.) | SMILES | IC50 (TG2 [4]) [nM] | Intact (%) ([5]; 15 min after i.v.) | Non-polar (%) ([5]; 15 min after i.v.) | Polar (%) ([5]; 15 min after i.v.) | Affinity for activated FXIII (activated FXIII) | Binding to MDA-MB-231 tumour sections (in vitro autoradiography) [6] | other results
1 |  |  | O=C(NC[C@@H]1CC(Br)=NO1)[C@@H]1CCCN1C(=O)OCc1cnc2ccccc2c1 [ERW1041E, Quinolin-3-ylmethyl (S)-2-((((S)-3-bromo-4,5-dihydroisoxazol-5-yl)methyl)carbamoyl)pyrrolidine-1-carboxylate] |  |  |  |  |  |  | Ki (TG2 [1]): 11 µM; Inhibition of TG2 activity in mouse model of pulmonary hypertension (TG2 [2]; 50 mg/kg): inhibition of TG2 activity to background levels; Reduction of TG2 activity in pulmonary hypertension model (TG2 [2]; 30 min after administration): factor of four; Time of maximum TG2 inhibitory effect after administration (TG2 [2]): 30 min
2 | 56 ± 14 | 24% and 24 ± 1% | C=C[11C](=O)NCCCC[C@H](NC(=O)Cc1ccccc1)C(=O)N1CCN(c2cccc(C)n2)CC1 [[^11C]1, (S)-N-(6-(4-(6-methylpyridin-2-yl)piperazin-1-yl)-6-oxo-5-(2-phenylacetamido)hexyl)[^11C]acrylamide] | 53 | 65 ± 7 | 13 ± 4 | 21 ± 3 | no affinity | specific and selective binding | Effect of ERW1041E pretreatment on tumour activity (MDA-MB-231 tumour; ERW1041E 50 mg/kg s.c. 30 min prior to tracer): significant increase in tumour activity; Time of peak tumour uptake after injection (MDA-MB-231 tumour; baseline): 5 to 10 min; Tumour uptake (MDA-MB-231 tumour; baseline, 40–60 min p.i., 5 MBq i.v.): approx. 0.5 %ID/g; Intact (%) ([5]; 45 min after i.v.): 29 ± 11%; Non-polar (%) ([5]; 45 min after i.v.): 6 ± 3%; Polar (%) ([5]; 45 min after i.v.): 65 ± 12%
3 | 20 ± 1 | 3 ± 2% | COC(=O)[C@H](CC(C)C)NC(=O)[C@@H]1CCCN1C(=O)[C@@H](NC(=O)[C@H](CCC(=O)C=[N+]=[N-])NC(=O)CO/N=C/c1ccc([18F])cc1)C(C)C [[^18F]2, (S)-methyl 2-((S)-1-((7S,10S,E)-7-(4-diazo-3-oxobutyl)-1-(4-[^18F]fluorophenyl)-10-isopropyl-5,8-dioxo-3-oxa-2,6,9-triazaundec-1-en-11-oyl)pyrrolidine-2-carboxamido)-4-methylpentanoate] | 104 | 1 ± 1 | 98 ± 1 | 2 ± 0 | no affinity | specific and selective binding | Tumour activity after pretreatment with ERW1041E (MDA-MB-231 tumour; ERW1041E 50 mg/kg s.c. 30 min prior to tracer, 40–60 min, p = 0.06 vs baseline): 1.4 %ID/g; Background (muscle, right femur) activity (MDA-MB-231 tumour; baseline, 40–60 min time-frame): 0.8 %ID/g; Tumour activity with co-administered unlabelled 2 (MDA-MB-231 tumour; self-blocking, 2 (50 μg, 75 nmol) co-administered, 40–60 min, p = 0.007): approximately 1.0 %ID/g; Metabolism in vivo ([5]; 15 min post injection): completely metabolised; Intact (%) [5, 8]: 0 ± 0 %; Non-polar (%) [5, 8]: 92 ± 3 %; Polar (%) [5, 8]: 8 ± 3 %
4 |  |  | CC(C)C[C@H](NC(=O)[C@@H]1CCCN1C(=O)[C@@H](NC(=O)[C@H](CCC(=O)C=[N+]=[N-])NC(=O)CO/N=C/c1ccc([18F])cc1)C(C)C)C(=O)O [[^18F]M1] | 45 |  |  |  |  |  | 
